# From the NIST ThermoML archive (doi:10.1016/j.jct.2014.12.008)
# ± gives the expanded uncertainty stated by the source.
# Settings: Liquid, Closed cell (Static) method
vapor or sublimation pressure (273.15 K) [kPa],vapor or sublimation pressure (283.15 K) [kPa],vapor or sublimation pressure (293.15 K) [kPa],vapor or sublimation pressure (303.15 K) [kPa],vapor or sublimation pressure (313.15 K) [kPa],vapor or sublimation pressure (323.15 K) [kPa],vapor or sublimation pressure (333.15 K) [kPa],vapor or sublimation pressure (343.15 K) [kPa],vapor or sublimation pressure (353.15 K) [kPa],vapor or sublimation pressure (363.15 K) [kPa],Structure (SMILES)
0.026 ± 0.002,0.064 ± 0.005,0.144 ± 0.01,0.299 ± 0.019,0.585 ± 0.037,1.081 ± 0.028,1.902 ± 0.023,3.206 ± 0.032,5.201 ± 0.045,8.153 ± 0.065,"CCC(N)CCN (stereo not given) [1,3-pentanediamine]"
0.004 ± 0.001,0.011 ± 0.001,0.028 ± 0.002,0.065 ± 0.005,0.137 ± 0.009,0.274 ± 0.017,0.519 ± 0.033,0.934 ± 0.024,1.611 ± 0.022,2.67 ± 0.028,"CC(CN)CCCN (stereo not given) [2-methyl-1,5-pentanediamine]"
